Data on one compound can be found in patent US12528774B2, “Thiosemicarbazone compounds and uses thereof” (The Regents of the University of California, priority 2019, dated 2026).

The target in data set [1] is dihydroorotate dehydrogenase (DHODH) (Homo sapiens, UniProt Q02127). In words: Recombinant DHODH activity assay. It is filed as biochemical. The conditions noted are these: HCT-13 100 nM, 1 μM; Cu(II) 20 μM. How it is done: (§1) FIG. 5A: rescue of HCT-13 (25 nM)-induced cell death by Uridine (rU) (200 μM), Pyruvate (1 mM), or both following 48h of treatment. FIG. 5B: measurement of DHODH activity using recombinant DHODH assay following treatment with indicated perturbations for 2 min. DHODH inhibitor used: NITD-982-1 μM; HCT-13-100 nM, 1 μM, (100 nM data shown); Cu(II)—20 μM. (mean±SD, n=2, Student t-test, * P<0.05).
DHODH activity: Recombinant protein was incubated in an aqueous solution (total volume, 1.0 mL) containing 500 μM DHO (Sigma, D1728), 200 mM K2CO3-HCl (pH 8.0), 0.2% triton x-100, and 100 μM coenzyme Q10 (Sigma, C9538) at 37° C. for 0, 15, 30, 45, or 60 min. An aliquot (100 μL) of the mixture of enzyme reaction mixture or cell/tissue lysate was mixed with 100 μL of 0, 0.5, or 1.0 μM orotic acid, 50 μL of H2O, 250 μL of 4.0 mM 4-TFMBAO (Sigma, 422231), 250 μL of 8.0 mM K3[Fe(CN)6] (Sigma, 244023), and 250 μL of 80 mM K2CO3 (Sigma, P5833) and then heated at 80° C. for 4.0 min. The reaction was stopped by cooling in an ice-water bath and the absorbance was measured with a spectrofluorometer (FP-6300 Jasco, Tokyo, Japan): excitation and emission wavelengths were 340 nm and 460 nm, respectively.

In data set [2] the test system is MIAPACA2 cells. In words: Viability assay (trypan blue) in MIAPACA2 cells with co-treatments. Type of data set: cell-based.
Excerpt: FIG. 1A: IC50 values in a panel of human and mouse prostate cancer (PC)(cell lines CF-2, LNCaP, 22Rv1, RM-1, MyC CaP); small cell lung carcinoma (SCLC)(cell lines NCI-H1963, NCI-H146, NCI-H526); pancreatic ductal adenocarcinoma (PDAC)(CFPAC1, SW1990, HS766T, PANC0203, PANC0813, ASPC1, HPAFII, PATU8902, PANC0327, PANC1, YAPC, L36PL, XWR200, HUPT4, A13A, SUIT2, DAN-G, BxPC3, HPAC, PSN1, SU8686, KP4662, MIAPACA2, PATU8988T); and leukemia (cell lines KG-1, TF-1, Jurkat, MOLT-4, p185-R, MV4-11) models treated with HCT13+Cu(II) (20 μM) for 72 h measured by CellTiterGlo. […] (mean±SD, n=2, one-way ANOVA corrected for multiple comparisons by Bonferroni adjustment, * P<0.05; **P<0.01; ***P<0.001).
FIGS. 2A-2I. FIG. 2A: representative immunoblots of MIAPACA2 PDAC cells treated as indicated for 24h. FIGS. 2B-2C: reactive oxygen species (ROS) measurement using CM-H2DCFDA staining after HCT13 (25 nM)+Cu(II) (20 μM) treatment for 24h; mean fluorescence intensity (MFI); mean±SD, n=2, Student t-test, ***P<0.001. FIG. 2D-2E: mitochondrial ROS detection using MitoSOX staining in MIAPACA2 PDAC cells treated with HCT-13 (25 nM)+Cu(II) (20 μM) for 24h; mean±SD, n=2, Student t-test, ***P<0.001. FIG. 2F: oxygen consumption rate (OCR) of MIAPACA2 PDAC cells treated with HCT-13 (25 nM)+Cu(II) (20 μM). FIG. 2G: OCR of isolated mitochondria measured with or without HCT-13 (25 nM)+Cu(II) (20 μM). FIG. 2H: viability of 143 BTK parental (wild type, WT) and po cells after 48 h of treatment with the indicated HCT-13 concentrations+Cu(II) (20 μM) treatment, assessed with trypan blue staining; mean±SD, n=2, Student t-test, ***P<0.001. FIG. 2I: cell viability by trypan blue staining in MIAPACA2 PDAC cells to interrogate the interaction of HCT-13 (25 nM)+Cu(II) (20 μM) with 2-DG (2 mM) for 48 h; mean±SD, n=2, Student t-test, ***P<0.001.
as §1
Viability/Apoptosis assay: Viable cells were measured by Trypan blue staining using vi-cell counter (Beckman Coulter, CA, USA). Apoptosis and cell death were assayed using Annexin V-FITC and PI according to manufacturer's instructions (FITC Annexin V Apoptosis Detection Kit, BD Sciences, #556570).
Viability/Apoptosis assay. Viable cells were measured by Trypan blue staining using a Vi-Cell counter (Beckman Coulter, CA, USA). […]

Structures are written as SMILES.

dihydroorotate dehydrogenase (DHODH), sequence (Q02127 whole entry, species assumed): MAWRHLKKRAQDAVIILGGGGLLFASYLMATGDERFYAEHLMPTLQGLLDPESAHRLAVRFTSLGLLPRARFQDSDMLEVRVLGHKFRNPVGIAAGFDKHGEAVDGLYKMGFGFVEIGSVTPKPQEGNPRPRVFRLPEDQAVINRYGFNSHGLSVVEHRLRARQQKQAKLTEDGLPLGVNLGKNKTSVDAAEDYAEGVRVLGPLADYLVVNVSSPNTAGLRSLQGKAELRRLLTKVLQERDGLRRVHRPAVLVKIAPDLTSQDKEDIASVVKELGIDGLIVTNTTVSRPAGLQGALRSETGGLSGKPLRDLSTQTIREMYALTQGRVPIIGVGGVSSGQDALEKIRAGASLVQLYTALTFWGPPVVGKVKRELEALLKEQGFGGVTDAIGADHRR

Consider `CN(C)C(=S)N/N=C/c1nccc2cc(F)ccc12` (mixture of isomers) [HCT13, (E)-2-((6-Fluoroisoquinolin-1-yl)methylene)-N,N-dimethylhydrazine-1-carbothioamide and (Z)-2-((6-Fluoroisoquinolin-1-yl)methylene)-N,N-dimethylhydrazine-1-carbothioamide], for which the “affinity for DHODH” value in data set [1] is recorded as “did not demonstrate affinity”. In addition, in data set [2] (HCT13 25 nM + Cu(II) 20 μM, 24 h, BCPS 300 μM), the “cytotoxicity in presence of bathocuproine disulfonate (BCPS)” value is listed as “abrogated”. Further, the “activity with co-administration of 2-deoxyglucose (2-DG)” value in data set [2] (HCT-13 25 nM + Cu(II) 20 μM, 2-DG 2 mM, 48 h) is given as “significantly potentiated”. Further, the “cytotoxicity with pyruvate supplementation” value in data set [2] (HCT-13 25 nM, pyruvate 1 mM, 48 h) is recorded as “not by pyruvate”. The “cytotoxicity with uridine (rU) supplementation” value in data set [2] (HCT-13 25 nM, uridine 200 μM, 48 h) is “partially abolished”.
